The values that follow come from PubChem BioAssay (NCI).

What all share (test): growth of human tumour cells (NCI), 48 h
Experiment [1] has as its system 786-0 renal.
Experiment [2] concerns ACHN renal.
For experiment [3], the system named is HL-60(TB) leukemia.
The subject of experiment [4] is MALME-3M melanoma.
For experiment [5], the system named is OVCAR-3 ovarian.
Experiment [6] relates to OVCAR-4 ovarian.
In experiment [7] the test system is OVCAR-8 ovarian.
Experiment [8] concerns U251 CNS.
Experiment [9] has as its system UACC-62 melanoma.

Molecules are shown by their SMILES.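 Tested at 5 concentrations; 48 h exposure; 96-well plates; endpoints linearly interpolated, else capped at highest concentration. The concentration for 50% growth inhibition is given as GI50. TGI denotes the concentration required for complete inhibition of growth.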

Turning to `NNC(=O)N/N=C1\CNC(=O)C(=O)C1c1nc2ccccc2s1` (centres undefined), the TGI in experiment [1], in experiment [2], in experiment [3], in [4], in experiment [5] and in experiment [6] was > 100 µM each time. For the same molecule, the TGI in experiment [7], in [8] and in experiment [9] was > 100 µM each time.
`C/C(CC(=O)Nc1cccc(Cl)c1C)=N\N=C(N)N`: the TGI in [1], in [2], in experiment [3], in experiment [4], in experiment [5] and in experiment [6] was > 100 µM in each case. The TGI in experiment [7], in experiment [8] and in experiment [9] was > 100 µM in each case.
As to `Cc1ccc(NC2=CC(=O)C(=O)c3ccccc32)c(C)c1`, the GI50 in experiment [1] is 8.44 µM; in experiment [2], 3.71 µM; in experiment [3], 2.59 µM; in experiment [4], 1.76 µM; in experiment [5], 1.49 µM; in experiment [6] it was 2.53 µM. Besides, the results for the GI50 in experiment [7], in [8] and in experiment [9] were 3.32 µM, 3.07 µM and 1.78 µM, respectively. Also, the TGI in experiment [1] came to 20.8 µM; in experiment [2] it was 13.9 µM; in [3], 8.06 µM; in experiment [4] it was 3.78 µM; in experiment [5], 4.47 µM; in [6], 12.2 µM. Further, the TGI in experiment [7] came out at 17 µM; in [8], 11.9 µM; in [9], 3.72 µM.
As for `CC(C)=CC(=O)CC(=O)C(=O)NCCNC(=O)C(=O)CC(=O)C=C(C)C`, the TGI in [1], in experiment [2], in experiment [4], in [5], in experiment [6] and in experiment [7] was > 50 µM in each case. Also, the TGI in [8] and in experiment [9] was > 50 µM each time.
Consider `O=c1[nH]c(=O)n(C2CC(O)C(O)C(CO)O2)cc1F` (centres undefined), for which the TGI in experiment [1], in [2], in experiment [3], in [4], in experiment [5] and in [6] was > 100 µM throughout. Also, the TGI in experiment [7], in [8] and in [9] was > 100 µM each time.
As to `O=C(Nc1ccc(Cl)c(Cl)c1)C1C(=O)N(c2ccc(Cl)c(Cl)c2)C(=O)/C1=N\O` (centres undefined), the TGI in [1], in experiment [2], in experiment [4], in [5], in experiment [6] and in [7] was > 100 µM throughout. In addition, the TGI in [8] and in [9] was > 100 µM each time.
For the molecule `NCC(Cc1ccccc1)P(=O)(O)O` (centres undefined), the TGI in experiment [1], in experiment [2], in [3], in [4], in experiment [5] and in experiment [6] was > 100 µM throughout. Also, the TGI in [7], in [8] and in experiment [9] was > 100 µM in each case.
For the molecule `CC1(C)OC2OC(COC(=O)C(c3ccccc3)c3ccccc3)C3OC(C)(C)OC3C2O1` (centres undefined), the TGI is > 100 µM in experiment [1]; > 100 µM in [2]; 13.8 µM in experiment [3]; > 100 µM in [4]; > 100 µM in experiment [6]; > 100 µM in experiment [7]. For the same molecule, the TGI in experiment [9] is > 100 µM. Further, in experiment [3], the GI50 was 2.99 µM.
With `O=C(CCC(=O)C1Cc2ccccc2C1=O)Nc1cccc(C(F)(F)F)c1` (centres undefined), the TGI in experiment [1], in experiment [2], in experiment [3], in experiment [4], in experiment [5] and in experiment [6] was > 100 µM each time. For the same molecule, the TGI in experiment [7], in experiment [8] and in [9] was > 100 µM throughout.
As to `C1CCN2CC3CONC3C2C1` (centres undefined), the TGI in experiment [1], in [2], in experiment [3], in [4], in experiment [5] and in [6] was > 100 µM throughout. Further, the TGI in [7], in [8] and in experiment [9] was > 100 µM each time.
Turning to `Nc1c(-c2nc3ccccc3s2)[n+]([O-])c2ccccc2[n+]1[O-]`, the TGI in [1] was > 100 µM; in experiment [2], 78 µM; in experiment [3] it was 93.5 µM; in [4], 91.7 µM; in [5], 60.6 µM; in experiment [6], > 100 µM. For the same molecule, the TGI in experiment [7], in experiment [8] and in experiment [9] was > 100 µM in each case.
With `O=C(CN(/C=C/C(=O)C(F)(F)F)c1ccccc1)c1ccc(F)cc1`, the GI50 in experiment [1] is 41.1 µM; in [2], 22.3 µM; in experiment [4], 26.7 µM; in experiment [5] it was 25.8 µM; in experiment [6] it was 42.5 µM; in [7], 47.4 µM. The GI50 in experiment [8] was 22.9 µM; in experiment [9] it was 13 µM. The TGI in experiment [1] is > 100 µM; in [2] it was 69.4 µM; in experiment [4], 74.1 µM; in [5], 68.7 µM; in experiment [6] it was > 100 µM; in experiment [7], > 100 µM. The TGI in [8] stood at 69.8 µM; in [9], 26.9 µM.
Consider `COc1ncc2cc1NS(=O)(=O)c1cccc(c1)C(=O)NCC1=CC=C(S1)c1ncnc3c1SC2=C3C`, for which the GI50 in experiment [1] is 0.31 µM; in [2], 0.592 µM; in experiment [4], 0.302 µM; in [5], 0.115 µM; in experiment [6] it was 1.22 µM; in [7], 0.58 µM. Further, the GI50 is 0.17 µM in experiment [8] and 0.248 µM in experiment [9]. In addition, the TGI in [1] was determined as 2.74 µM; in [2], 8.33 µM; in experiment [4], 3.09 µM; in experiment [5], 0.431 µM; in [6], 10.5 µM; in [7], 15.5 µM. The TGI in experiment [8] turned out to be 2.03 µM; in [9], 1.24 µM.
For `c1ccc2c(c1)[O][Sn][O]2`, the GI50 in [1] was 23.6 µg/mL; in experiment [2], 24.1 µg/mL; in experiment [3] it was 1.55 µg/mL; in [4], 90.9 µg/mL; in [5], 10.9 µg/mL; in experiment [6], 102 µg/mL. Also, the GI50 in experiment [7] is 45.3 µg/mL; in [8] it was > 150 µg/mL; in experiment [9] it was 35.5 µg/mL. Also, the TGI in [1] was > 150 µg/mL; in [2], > 150 µg/mL; in [3] it was 6.37 µg/mL; in experiment [4], > 150 µg/mL; in [5], > 150 µg/mL; in [6] it was > 150 µg/mL. In addition, the TGI in experiment [7], in experiment [8] and in experiment [9] was > 150 µg/mL each time.
Consider `CCOC(=O)COc1cccc2occc(=O)c12`, for which the TGI in [1], in [2], in [3], in [4], in [5] and in experiment [6] was > 100 µM in each case. Besides, the TGI in experiment [7], in experiment [8] and in experiment [9] was > 100 µM throughout.
Consider `O=C1c2ccccc2-c2c1c1ccc([N+](=O)[O-])cc1c(=O)n2CCCCl`, for which the GI50 in [1] was > 100 µM; in experiment [2], 4.29 µM; in experiment [3], 52.4 µM; in experiment [5] it was 4.91 µM; in experiment [7], 72.1 µM; in experiment [8], 3.08 µM. The GI50 in experiment [9] was 20.3 µM. Also, the TGI in [1] is > 100 µM; in [2] it was > 100 µM; in [3], > 100 µM; in [5], 77 µM; in experiment [7] it was > 100 µM; in [8] it was > 100 µM. Also, in experiment [9], the TGI was > 100 µM.
`COc1ccc2c3c(c(C(=O)O)oc13)C(CCC(=O)O)CC2` (centres undefined): the TGI in experiment [1], in experiment [2], in [5], in experiment [6], in [7] and in experiment [8] was > 100 µM in each case. The TGI in experiment [9] was > 100 µM.
Consider `NC(=O)C(=O)Cc1nc2ccccc2s1`, for which the TGI in experiment [1], in experiment [2], in experiment [3], in experiment [4], in experiment [5] and in experiment [6] was > 100 µM throughout. Also, the TGI in [7] and in experiment [8] was > 100 µM in each case.
With `CC(=O)c1c(O)c2c([nH]c1=O)CCCC2`, the TGI in [1], in experiment [2], in experiment [3], in experiment [4], in experiment [5] and in experiment [6] was > 100 µM throughout. Moreover, the values for the TGI in [7], in experiment [8] and in [9] were > 100 µM, 60.9 µM and 43.3 µM, respectively.
As for `Cc1csc(CCC(N)C(=O)O)n1` (centres undefined), the TGI in experiment [1], in [2], in experiment [4], in [5], in experiment [7] and in experiment [8] was > 100 µM each time. The TGI in experiment [9] was > 100 µM.
With `C=CC(C)(O)CCC1C(=C)C(O)CC2C(C)(C)CCCC12C` (centres undefined), the TGI was 32.8 µM in [1]; 70.4 µM in experiment [2]; 35.9 µM in experiment [3]; 34.8 µM in experiment [4]; 39.9 µM in experiment [5]; 47.5 µM in experiment [6]. Also, the values for the TGI in experiment [7], in experiment [8] and in experiment [9] were 71.4 µM, 28.8 µM and 29.8 µM, respectively.
In the case of `COc1cc2c3c(n(CCCN4CCSCC4)c(=O)c2cc1OC)-c1cc2c(cc1C3=O)OCO2`, the GI50 in experiment [1] is 25.2 µM; in experiment [2], 58.6 µM; in experiment [4], 67.5 µM; in experiment [5] it was 35 µM; in [6], > 100 µM; in experiment [7], > 100 µM. Besides, the GI50 is > 100 µM in [8] and 37.5 µM in experiment [9]. In addition, the TGI in experiment [1] was 75.5 µM; in [2] it was > 100 µM; in [4] it was > 100 µM; in experiment [5], 97.1 µM; in experiment [6] it was > 100 µM; in [7] it was > 100 µM. The TGI in [8] and in [9] was > 100 µM throughout.
On to `Cc1ccc(O)cc1Nc1ccnc2cc(-c3ccccn3)ccc12`, for which the GI50 in [1] was 2.98 µM; in experiment [2], 0.611 µM; in experiment [3], 4.69 µM; in [4], 3.59 µM; in [5], 2.14 µM; in experiment [6], 1.82 µM. The GI50 in experiment [7] is 3.61 µM; in experiment [8], 3.29 µM; in [9], 3.45 µM. For the same molecule, the TGI in experiment [1] worked out at 6.66 µM; in experiment [2], 5.16 µM; in [3], 9.53 µM; in experiment [4] it was 8.32 µM; in [5], 6.36 µM; in [6], 11.7 µM. The TGI was determined as 9.28 µM in [7], 6.65 µM in experiment [8] and 7.34 µM in [9].
For `Cc1cc(OC(=O)c2c(C)cc(OC(=O)c3c(C)cc(O)cc3O)cc2O)cc(O)c1C(=O)O`, the TGI in experiment [1], in experiment [2], in [3], in experiment [4], in [5] and in [6] was > 100 µM each time. Besides, the TGI in experiment [7], in [8] and in [9] was > 100 µM each time.
For `Cc1cn2c(/C=C3/C(=O)Nc4ccc(C(=O)O)cc43)c(C)nc2s1`, the GI50 in [1], in experiment [2], in experiment [3], in experiment [4], in [5] and in experiment [6] was > 100 µM in each case. For the same molecule, the GI50 in experiment [7], in experiment [8] and in experiment [9] was > 100 µM in each case. Also, the TGI in experiment [1], in [2], in experiment [3], in [4], in experiment [5] and in [6] was > 100 µM throughout. The TGI in [7], in experiment [8] and in experiment [9] was > 100 µM each time.
